Key:
[1] = test system: AKT; test: AKT phosphorylation in pancreatic cancer PDX tumors; format: in vivo, mice; conditions: daily treatment, harvested 4-6 h after last dose
Method: Kinome reprogramming in PDX model of pancreatic cancer after BKM120 treatment: The kinome response of a pancreatic cancer PDX to BKM120 treatment was evaluated using MIB/MS. […] Kinome reprogramming in PDX models: De-identified tumors from patients are grafted into immunecompromised mice and passaged. All tumors are characterized using microarray and mutational analysis. Hematoxylin & eosin staining of a patient tumor at the time of operation and after several passages over a 1.5 yr period showing similar glandular architecture with surrounding stroma. Variable levels of pERK1/2 and pAKT(S473) was seen across pancreatic cancer PDX. PDX P100422 with moderate levels of pAKT was selected for BKM120 treatment. pAKT expression in BKM120 versus vehicle treated PDX tumor. Mice were treated daily with either vehicle control (n=3) or BKM120 (n=3) and tumors were harvested 4-6 h after the last dose. PDX tumors were treated daily for 28 days. […] The 3 vehicle control and 3 BKM120 treated tumors showing inhibition of pAKT were analyzed using MIB/MS. Activation and repression of the kinome in response to PI3K inhibition in PDX P100422.

[2] = test system: PDX P100422; test: Tumor growth of pancreatic cancer PDX P100422; format: in vivo, mice
Text: Kinome reprogramming in PDX models: De-identified tumors from patients are grafted into immunecompromised mice and passaged. All tumors are characterized using microarray and mutational analysis. Hematoxylin & eosin staining of a patient tumor at the time of operation and after several passages over a 1.5 yr period showing similar glandular architecture with surrounding stroma. Variable levels of pERK1/2 and pAKT(S473) was seen across pancreatic cancer PDX. PDX P100422 with moderate levels of pAKT was selected for BKM120 treatment. pAKT expression in BKM120 versus vehicle treated PDX tumor. Mice were treated daily with either vehicle control (n=3) or BKM120 (n=3) and tumors were harvested 4-6 h after the last dose. PDX tumors were treated daily for 28 days. […] The 3 vehicle control and 3 BKM120 treated tumors showing inhibition of pAKT were analyzed using MIB/MS. Activation and repression of the kinome in response to PI3K inhibition in PDX P100422.

[3] = test system: MEK; conditions: Gilmartin et al. 2011; cited from earlier work
[4] = test system: MEK-ERK pathway; test: Window trial in TNBC patients (LCCC 1122), MIB/MS of tumor biopsies; format: in vivo, human; conditions: 7-day post-treatment versus pre-treatment biopsy, preliminary
Text: Kinome reprogramming in TNBC patients treated with the MEK inhibitor GSK1120212 is being evaluated (LCCC 1122).

[5] = test system: MEK1; test: MEK1 activation in HPAC pancreatic cancer cells; format: cell-based
Method: Kinome reprogramming in pancreatic cancer—cell type and inhibitor specific. The kinome response to drug in 3 pancreatic cancer cell lines (HPAC, AsPC-1, HPAF-II) was also evaluated using 3 kinase inhibitors that are currently in Phase I/II clinical trials: BKM120 (Novartis), an oral pan-class 1 PI3K inhibitor, […] (Glaxo Smith-Kline), an ATP competitive PI3K/mTOR inhibitor, and GSK1120212, a reversible allosteric inhibitor of MEK1/2 (Glaxo Smith-Kline). The kinome response for GSK2126458 and GSK1120212 was compared using MIB/MS and RTK arrays to determine if kinome reprogramming was inhibitor-specific. […] Thus, kinome reprogramming is target-specific.

[6] = test system: BT474 cells; test: BT474 luminescent cell viability assay; format: cell-based; conditions: 50 nM lapatinib, 0-72 hours
Method: The different colors represent different time points of (50 nM) lapatinib treatment relative to DMSO control-treated cells. From light to dark, the time points are 4, 24, and 48 hrs of lapatinib treatment.

In the case of `Nc1cc(C(F)(F)F)c(-c2cc(N3CCOCC3)nc(N3CCOCC3)n2)cn1` [BKM120], the AKT phosphorylation [1] is reported as “inhibited AKT phosphorylation”, the “effectiveness in the PDX model” value ([2]; small sample size) is reported as “not clearly effective” and the “number of tumors showing tumor growth inhibition relative to controls” value ([2]; treated daily for 28 days) is reported as 4 tumors.
For `CC(=O)Nc1cccc(-n2c(=O)n(C3CC3)c(=O)c3c(Nc4ccc(I)cc4F)n(C)c(=O)c(C)c32)c1` [GSK1120212], the “fold lower affinity of MEK phosphorylated at the activation loop serines than nonphosphorylated MEK” value [3] is listed as 20 fold, the “MEK-ERK pathway in patient tumors” value [4] is listed as “effectively inhibited” and the “kinome reprogramming in patient tumors” value [4] is listed as “upregulation of MRCKG, FER and DDR1”. For the same compound, the MEK1 activation [5] was “inhibited MEK1 activation”.
In the case of `CS(=O)(=O)CCNCc1ccc(-c2ccc3ncnc(Nc4ccc(OCc5cccc(F)c5)c(Cl)c4)c3c2)o1` [lapatinib], the “growth of BT474 cells” value [6] is reported as “growth inhibition”.

Source: US20140243239A1, “MULTIPLEXED KINASE INHIBITOR BEADS AND USES THEREOF” (University of North Carolina at Chapel Hill, priority 2011, published 2014)
